A word on the IC50: it is the concentration needed to halve the response being measured.

We go through three molecules from ChEMBL document CHEMBL1137024, “Acyl-CoA: cholesterol acyltransferase inhibitory activities of fatty acid amides isolated from Mylabris phalerate Pallas” (Bioorg Med Chem Lett, 2004).

The target in assay [1] is Sterol O-acyltransferase 2 (Homo sapiens, UniProt O75908). As to the kind of experiment: Inhibitory activity against human Acyl coenzyme A:cholesterol acyltransferase 2.
In assay [2] the target is T1, Sterol O-acyltransferase 1 (Rattus norvegicus, UniProt O70536).
T1 sequence (O70536 whole entry): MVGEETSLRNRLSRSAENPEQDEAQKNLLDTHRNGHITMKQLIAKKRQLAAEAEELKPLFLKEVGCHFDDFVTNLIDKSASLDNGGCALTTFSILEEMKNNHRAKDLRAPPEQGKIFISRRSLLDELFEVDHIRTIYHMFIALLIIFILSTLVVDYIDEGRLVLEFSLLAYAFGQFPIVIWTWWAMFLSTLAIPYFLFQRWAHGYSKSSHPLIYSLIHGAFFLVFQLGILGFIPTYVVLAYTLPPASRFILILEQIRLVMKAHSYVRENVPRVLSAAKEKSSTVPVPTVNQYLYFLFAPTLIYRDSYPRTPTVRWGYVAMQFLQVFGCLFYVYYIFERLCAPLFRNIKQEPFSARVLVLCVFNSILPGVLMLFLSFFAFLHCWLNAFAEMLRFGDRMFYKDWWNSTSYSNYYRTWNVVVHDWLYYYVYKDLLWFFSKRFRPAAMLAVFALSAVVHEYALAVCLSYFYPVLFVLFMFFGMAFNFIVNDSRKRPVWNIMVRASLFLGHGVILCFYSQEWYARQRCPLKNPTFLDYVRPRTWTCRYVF
The assay can be described thus: Inhibitory activity against rat liver microsomal Acyl coenzyme A:cholesterol acyltransferase. In general terms: Liver microsomes are vesicles of endoplasmic reticulum, rich in cytochrome P450 enzymes.

Assay [3] deals with T2, Sterol O-acyltransferase 1 (Homo sapiens, UniProt P35610).
T2 sequence (P35610 whole entry): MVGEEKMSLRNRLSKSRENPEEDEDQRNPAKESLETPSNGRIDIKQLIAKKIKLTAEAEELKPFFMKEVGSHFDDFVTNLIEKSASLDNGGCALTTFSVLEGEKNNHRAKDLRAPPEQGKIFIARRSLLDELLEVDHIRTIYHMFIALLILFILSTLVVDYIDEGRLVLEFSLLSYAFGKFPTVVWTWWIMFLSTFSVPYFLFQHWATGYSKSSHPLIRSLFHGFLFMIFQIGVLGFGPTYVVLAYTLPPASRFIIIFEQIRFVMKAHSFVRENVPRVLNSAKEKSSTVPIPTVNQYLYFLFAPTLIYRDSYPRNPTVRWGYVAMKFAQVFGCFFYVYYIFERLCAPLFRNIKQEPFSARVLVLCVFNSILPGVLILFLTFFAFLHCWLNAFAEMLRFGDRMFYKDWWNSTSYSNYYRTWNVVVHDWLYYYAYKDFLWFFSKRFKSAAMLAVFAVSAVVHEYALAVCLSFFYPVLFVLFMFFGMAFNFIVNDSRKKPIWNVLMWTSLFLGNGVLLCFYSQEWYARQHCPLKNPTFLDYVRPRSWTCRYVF
The assay can be described thus: Inhibitory activity against human Acyl coenzyme A:cholesterol acyltransferase 1.

Chain of Sterol O-acyltransferase 2 (O75908 whole entry, looked up): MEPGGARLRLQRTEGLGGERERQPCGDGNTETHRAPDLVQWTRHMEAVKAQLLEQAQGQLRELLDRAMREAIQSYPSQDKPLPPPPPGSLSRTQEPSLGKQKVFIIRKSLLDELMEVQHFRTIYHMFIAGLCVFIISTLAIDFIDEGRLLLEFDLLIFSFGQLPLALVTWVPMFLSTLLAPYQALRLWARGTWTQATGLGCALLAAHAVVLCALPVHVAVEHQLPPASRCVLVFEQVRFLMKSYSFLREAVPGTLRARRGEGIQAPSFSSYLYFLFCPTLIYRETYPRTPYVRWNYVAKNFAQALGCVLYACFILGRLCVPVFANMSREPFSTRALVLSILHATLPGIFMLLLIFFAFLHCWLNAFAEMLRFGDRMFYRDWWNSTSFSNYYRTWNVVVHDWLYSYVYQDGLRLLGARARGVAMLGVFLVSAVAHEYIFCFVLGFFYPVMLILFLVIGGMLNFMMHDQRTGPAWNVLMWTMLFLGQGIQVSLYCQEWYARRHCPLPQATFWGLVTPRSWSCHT

As to `CCCCC/C=C\C/C=C\CCCCCCCC(=O)O` [LINOLEIC ACID], the 50% inhibitory concentration (IC50) in assay [1], in assay [2] and in assay [3] was over 1000 µM throughout.
On to `CCCCCCCC/C=C\CCCCCCCC(=O)O` [OLEIC ACID], for which the half-maximal inhibitory concentration (IC50) in assay [1], in assay [2] and in assay [3] was over 1000 µM each time.
In assay [2], `CC(=O)OC[C@@]1(C)[C@@H]2C[C@H](OC(C)=O)[C@@]3(C)Oc4cc(-c5cccnc5)oc(=O)c4[C@H](O)[C@@H]3[C@@]2(C)CC[C@@H]1OC(C)=O` [PYRIPYROPENE A] gave an IC50 of 0.17 µM.
